Measured values taken from article PMC4199632, “Exploring the Anti-Cancer Activity of Novel Thiosemicarbazones Generated through the Combination of Retro-Fragments: Dissection of Critical Structure-Activity Relationships” (PLoS ONE, 2014).

Key:
[1] = Ascorbate oxidation assay (iron complexes); assay type: biochemical; conditions: iron complex; for Ascorbate oxidation (% of the control): FeIII 10 µM, ascorbate 100 µM
Method: The ability of the iron complexes of the novel ligands to mediate the oxidation of the physiological substrate, ascorbate, was examined using established methods, [18], [22], [52], [53]. Ascorbic acid (100 µM) was prepared immediately prior to each experiment and was incubated in the presence of Fe^III (10 µM; as FeCl3), the chelator (1–60 µM) and a 50-fold molar excess of citrate (500 µM). The absorbance at 265 nm was measured after 10 and 40 min and the difference in absorbance at these time points was calculated. The results of these experiments were expressed as iron-binding equivalents (IBE) due to the different denticity of the chelators examined. The chelators, Dp44mT, DFO and ethylenediaminetetraacetic acid (EDTA) were used as controls as the ability of their iron complexes to oxidize ascorbate has been extensively characterized, [15], [52], [53].
The ability of the iron complexes of the novel TSCs to catalyze the oxidation of the physiological substrate, ascorbate, was important to assess as redox cycling may play a critical role in their anti-proliferative activity, [15], [18], [52], [53]. Thus, the oxidation of ascorbate mediated by the iron complexes of series 1–6 were examined in comparison to the iron complexes of the control compounds, DFO, EDTA and Dp44mT, as the ability of the latter to oxidize ascorbate is well characterized, [15], [52], [53], [68]. The results were expressed as a percentage of the control (no chelator) at iron-binding equivalents (IBEs) of 0.1 (excess “free” iron), 1 (iron-chelator complexes with a fully filled coordination sphere), or 3 (excess free chelator), due to the different denticity of the chelators examined (Fig. 10).
Figure 10 Effect of the iron complexes of (A) series 1, (B) series 2, (C) series 3, (D) series 4, (E) series 5 and (F) series 6 chelators, relative to DFO, Dp44mT and EDTA, on ascorbate oxidation. Chelators at iron-binding equivalent (IBE) ratios of 0.1, 1, and 3 were incubated in the presence of Fe^III (10 µM) and ascorbate (100 µM). The UV-Vis absorbance at 265 nm was recorded after 10 and 40 min, and the difference between the time points was calculated. Results are mean ±SD (3 experiments).

SK-N-MC cells = assay: Mobilization of cellular 59Fe (59Fe efflux); assay type: cell-based, human; conditions: chelator 25 µM; for 59Fe mobilization (% of cellular 59Fe released): 3 h/37°C, prelabeled SK-N-MC cells, control medium 4±1%; for 59Fe mobilization efficacy compared with controls: SK-N-MC cells
Method: The iron transport protein, Tf (Sigma-Aldrich), was labeled with ^59Fe (PerkinElmer Life and Analytical Sciences, Boston, MA) to form ^59Fe2-Tf using standard methods, [7]. Unbound ^59Fe was removed by passage through a Sephadex G25 column and was followed by exhaustive dialysis, [7].
To examine the ability of the novel chelators to mobilize ^59Fe from SK-N-MC cells, ^59Fe efflux experiments were performed using established techniques, [51]. The monolayer of SK-N-MC cells was prelabeled for 3 h at 37°C in MEM containing ^59Fe2-Tf (0.75 µM). Cells were then washed four times with ice-cold PBS and incubated for a further 3 h at 37°C with medium alone (the control) or medium containing the chelator (25 µM). After this incubation, the overlying medium that contained the released ^59Fe was separated from the cells using a Pasteur pipette. Radioactivity was measured in both the cells and supernatant using a γ-scintillation counter (Wallac Wizard 3, Turku, Finland). In these studies, the novel ligands were compared to the previously characterized chelators, DFO and Dp44mT, as their ability to mobilize cellular ^59Fe has been extensively examined in these cells, [12], [17], [18], [50].
Figure 6 Effect of (A) series 1, (B) series 2, (C) series 3, (D) series 4, (E) series 5 and (F) series 6 chelators, relative to the controls DFO and Dp44mT, on ^59Fe mobilization from prelabeled SK-N-MC cells. Cells were incubated for 3 h/37°C with ^59Fe-transferrin (0.75 µM), washed 4 times with ice-cold PBS and then reincubated for 3 h/37°C in the presence or absence of the chelators (25 µM). Release of ^59Fe was then assessed using a γ-scintillation counter. Results are mean ±SD (3 experiments).

Compound	Ascorbate oxidation (% of the control) ([1]; IBE 3)	59Fe mobilization (% of cellular 59Fe released) (SK-N-MC cells)	59Fe mobilization efficacy compared with controls (SK-N-MC cells)	further results
S=C(NN=C(c1ccccn1)c1ccccn1)N1CCN(c2cnccn2)CC1 [1e]	200–265%	31–39%		
CN(C)C(=S)NN=C(c1ccccn1)c1ccccn1 [Dp44mT, di-2-pyridylketone 4,4-dimethyl-3-thiosemicarbazone, reference compound]	196%	35±2%		Ascorbate oxidation (% of the control) ([1]; IBE 0.1): 129%; Ascorbate oxidation (% of the control) ([1]; IBE 1): 203%
CN(C(=S)N/N=C/c1cnc2ccccc2n1)C1CCCCC1 [5f]			comparable release of ^59Fe relative to DFO	Ascorbate oxidation compared with controls ([1]; IBE 3): decreased ascorbate oxidation relative to the control
CCN1CCN(C(=S)N/N=C/c2ccc3ccccc3n2)CC1 [2a]	200–265%		comparable ^59Fe mobilization efficacy to that of the control medium	
CN(C(=S)N/N=C/c1ccccc1O)C1CCCCC1 [6f]				Ascorbate oxidation compared with controls ([1]; IBE 3): decreased ascorbate oxidation relative to the control
CN(C(=S)N/N=C/c1ccc2ccccc2n1)C1CCCCC1 [2f]			comparable release of ^59Fe relative to DFO	
CC(=O)N(O)CCCCCNC(=O)CCC(=O)N(O)CCCCCNC(=O)CCC(=O)N(O)CCCCCN [DFO, desferrioxamine, reference compound]	23%	11±2%		Ascorbate oxidation (% of the control) ([1]; IBE 1): 47%
S=C(N/N=C/c1ccc2ccccc2n1)N1CCN(c2ccccc2)CC1 [2b]			comparable release of ^59Fe relative to DFO	
